From patent US20090076029A1 (Palatin Technologies, Inc., priority 2007, published 2009)
Read-outs that look alike come from different tables or passages of the source.

Assays:
hMC4-R [1] = system: T1, hMC4-R; assay: cAMP functional assay in HEK-293 cells expressing MC4-R (agonist, neutral antagonist/Schild); assay type: cell-based, human; settings: for intrinsic activity at MC4-R: NDP-α-MSH maximal stimulation = 1.0; for functional status at MC4-R: mostly at 1 μM
T1 construct: expressed in transfected cells; host or cells: HEK-293
Procedure: (§1) General method for EC50 determination in functional activity assay. Functional evaluation of compounds at melanocortin receptors was performed by measuring the accumulation of intracellular cAMP in HEK-293 cells expressing hMC3-R, hMC4-R or hMC5-R, and in B-16 mouse melanoma cells expressing MC1-R. Cells suspended in Earle's Balanced Salt Solution containing 10 mM HEPES (pH 7.5), 5 mM MgCl2, 1 mM glutamine, 0.1% albumin and 0.6 mM 3-isobutyl-1-methyl-xanthine, a phosphodiesterase inhibitor, were plated in 96 well plates at a density of 0.5×10^5 cells per well. Cells were incubated with the test compounds in the presence or absence of α-MSH for 1 hour at 37° C. cAMP levels in the cell lysates were measured using an EIA kit (Amersham). Data analysis and EC50 values were determined using nonlinear regression analysis with Prism Graph-Pad software.
(§2) Functional status. The agonist/antagonist status with respect to MC1-R, MC-3R, MC4-R and MC5-R of certain compounds of the invention was determined.
Assay for agonist. Evaluation of the molecules to elicit a functional response in HEK-293 cells expressing MC4-R was accomplished by measuring the accumulation of intracellular cAMP following treatment. Confluent HEK-293 cells expressing MC4-R were detached by enzyme free cell suspension buffer. Cells were suspended in Earle's Balanced Salt Solution containing 10 mM HEPES (pH 7.5), 1 mM MgCl2, 1 mM glutamine, 0.5% albumin and 0.3 mM 3-isobutyl-1-methyl-xanthine (IBMX), a phosphodiesterase inhibitor. The cells were plated in 96 well plates at a density of 0.5×10^5 cells per well and pre-incubated for 30 minutes. The cells were then challenged with the test compounds dissolved in DMSO at a concentration range of 0.05-5000 nM in a total assay volume of 200 μL for 1 hour at 37° C. The concentration of DMSO was always held at 1% in the assay mixture. NDP-α-MSH was used as the reference agonist. At the end of the incubation period the cells were disrupted by the addition of 50 μL of lysis buffer from a cAMP EIA kit (Amersham). Complete rupture of the cells was obtained by pipetting the cells multiple times. cAMP levels in the cell lysates were measured after appropriate dilution using the EIA kit (Amersham) method. Data analysis and EC50 values were determined by using nonlinear regression analysis with Prism Graph-Pad software. […] FIG. 1 illustrates typical results, showing the stimulation of cAMP using the compound of Example 11 in HEK-293/MC4-R cells with comparison to NDP-α-MSH.
Assay for Neutral Antagonist. Compounds with a high affinity for binding to MC4-R membranes but with less potency in terms of cAMP accumulation (EC50>1000 nM) and low response ratio (<0.1) were analyzed for their ability to antagonize the stimulatory effect of the agonist NDP-α-MSH. These studies were carried out in HEK-293 cells expressing MC4-R. Cells were incubated with the compounds in the presence of the agonist NDP-α-MSH and the extent of antagonism was measured by the decrease in intracellular cAMP concentrations. Screening the compounds for antagonist activity was performed at a single concentration of NDP-α-MSH (1.0 nM) over a compound concentration range of 0.5-5000 nM.
Experimental details were similar to the analysis for agonistic activity described above. Briefly, cells were pre-incubated for 30 minutes with the test compounds at concentrations between 0.5 nM and 5000 nM. The cells were then stimulated with NDP-α-MSH at a concentration of 1 nM for 1 hour. For Schild's analysis, the interactions were studied using at least 3 concentrations of the compounds, separated by a log unit, over a full range of the agonist (0.005-5000 nM). cAMP levels were measured in the cell lysates after appropriate dilution. Nonlinear regression analysis with Prism Graph-Pad software was used for Schild analysis and to obtain EC50 values. pA2 values were derived from the Schild plot of the data.

hMC4-R [2] = molecular target: T1, hMC4-R; assay: Competitive inhibition assay using [I125]-NDP-α-MSH, hMC4-R membranes; assay type: binding, human; settings: for attenuation of binding of α-MSH and AgRP to MC4-R: both ligands (NDP-α-MSH and AgRP), summary
Procedure: (§3) Competitive inhibition assay using [1125]-NDP-α-MSH. A competitive inhibition binding assay was conducted using membranes prepared from HEK-293 cells transfected to express hMC3-R, hMC4-R or hMC5-R, and from B-16 mouse melanoma cells (containing MC1-R) using 0.2 to 0.4 nM [I^125]-NDP-α-MSH (New England Nuclear) in 50 mM HEPES buffer containing 1 mM MgCl2, 2 mM CaCl2, and 5 mM KCl, at pH 7.2. In certain experiments, HEK-293 cells transfected to express hMC1-R were also employed. The assay tube also contained a chosen concentration of the test compound of this invention, typically a 1 μM concentration, for determining inhibition of the binding of [^1125]-NDP-α-MSH to its receptor. Non-specific binding was measured by inhibition of binding of [I^125]-NDP-α-MSH in the assay with the presence of 1 μM α-MSH.
(§4) The assay mixture was incubated for 90 minutes at room temperature, then filtered and the membranes washed three times with ice cold buffer. The filter was dried and counted in a gamma counter for remaining radioactivity bound to the membranes. 100% specific binding was defined as the difference in radioactivity (cpm) bound to cell membranes in the absence and presence of 1 μM α-MSH. The cpm obtained in presence of test compounds were normalized with respect to 100% specific binding to determine the percent inhibition of [125]-NDP-α-MSH binding. Each assay was conducted in triplicate and the actual mean values are described, with results less than 0% reported as 0%.

hMC3-R = molecular target: T2, hMC3-R; assay: Competitive inhibition assay using [I125]-NDP-α-MSH, hMC3-R membranes; assay type: binding, human; settings: read-out: Ki (nM) (NDP-α-MSH) MC3-R
T2 construct: expressed in transfected cells; host or cells: HEK-293
Procedure: as §3, §4

hMC5-R [3] = molecular target: T3, hMC5-R; assay: Competitive inhibition assay using [I125]-NDP-α-MSH, hMC5-R membranes; assay type: binding, human; settings: read-out: Ki (nM) (NDP-α-MSH) MC5-R
T3 construct: expressed in transfected cells; host or cells: HEK-293
Procedure: as §3, §4

hMC4-R [4] = system: T1, hMC4-R; assay type: binding, human; settings: for Inhibition at 1 μM (AgRP) MC4-R: 1 μM compound
Procedure: Competitive binding assay using [I^125]-AgRP (83-132). Competitive binding studies using [I^125]-AgRP (83-132) were carried out on membranes isolated from cells expressing hMC4-R. The assay was performed in 96 well GF/B Millipore multiscreen filtration plates (MAFB NOB10) pre-coated with 0.5% bovine serum albumin (Fraction V). The assay mixture contained 25 mM HEPES buffer (pH 7.5) with 100 mM NaCl, 2 mM CaCl2, 2 mM MgCl2, 0.3 mM 1,10-phenanthroline, 0.5% bovine serum albumin, cell membranes, radioligand [I^125]-AgRP (83-132) (NEN), and increasing concentrations of compounds in a total volume of 200 μL. Binding was measured at radioligand concentrations of 0.2 nM. After incubating for 1 hour at 37° C., the reaction mixture was filtered and washed with an assay buffer containing 500 mM NaCl. The dried discs were punched out from the plate and counted on a gamma counter. Care was taken to limit the specific binding of the ligand to an amount not exceeding 10% of the counts added to the reaction mixture. Data were analyzed using the Prism Graph-Pad curve fitting software.

MC1-R [5] = molecular target: T4, MC1-R; assay: Competitive inhibition assay using [I125]-NDP-α-MSH, MC1-R membranes; assay type: binding, mouse; settings: for Inhibition at 1 μM (NDP-α-MSH) MC1-R: 1 μM compound
T4 construct: other: 1 μM compound
Procedure: as §3, §4

hMC5-R [6] = system: T3, hMC5-R; assay: cAMP functional assay, HEK-293 cells expressing hMC5-R; assay type: cell-based, human; settings: cAMP assay at 1 μM
Procedure: as §1, §2

MC1-R [7] = system: T5, MC1-R; assay: cAMP functional assay, B-16 mouse melanoma cells expressing MC1-R; assay type: cell-based; settings: cAMP assay at 1 μM
T5 construct: from B-16 mouse melanoma cells (containing MC1-R); endogenous in cells; host or cells: B-16 mouse melanoma cells
Procedure: as §1, §2

[8] = cAMP assay, read-out: EC50 (nM) at MC4-R
[9] = MC4-R membranes, Table 1, read-out: Ki (nM) I125-NPD-α-MSH
[10] = read-out: Ki (nM) (NDP-α-MSH) MC4-R
[11] = MC4-R membranes, Table 1, read-out: Ki (nM) I125-AgRP

Compound | functional status (pAg, Ag, Antag, Inactive) (hMC4-R [1]; MC4-R, Table 1) | EC50 (hMC4-R [1]; MC4-R, Table 1, read-out: EC50) | intrinsic activity at MC4-R (hMC4-R [1]) | EC50 (hMC4-R [1]; [8]) | Ki (hMC4-R [2]; [9]) | attenuation of binding of α-MSH and AgRP to MC4-R (hMC4-R [2]) | Ki (hMC4-R [2]; [10]) | Ki (hMC3-R) | Ki (hMC5-R [3]) | Inhibition at 1 μM (AgRP) MC4-R (hMC4-R [4]) | Ki (hMC4-R [4]; [11]) | Ki (hMC4-R [4]; read-out: Ki (nM) (AgRP) MC4-R) | Ki (MC1-R [5]) | Inhibition at 1 μM (NDP-α-MSH) MC1-R (MC1-R [5]) | functional status at MC4-R (hMC4-R [1]; cAMP assay) | also measured
N=C(N)NCCC[C@H]1CN(CCc2ccc3ccccc3c2)CCN1C(=O)[C@H](N)Cc1ccc(Cl)cc1Cl [Example 18, N-{3-[(S)-1%-[(R)-2-Amino-3-(2,4-dichloro-phenyl)-propionyl]-4-(2-naphthalen-2-ylethyl)-piperazin-2-yl]-propyl}-guanidine] | pAg (“pAg” means partial agonist) | 22 nM | 0.4 | 22 nM | 3 nM | attenuate the binding of both α-MSH and AgRP to MC4-R | 3 nM | 97 nM | 259 nM | 100% | 1 nM | 1 nM | 1200 nM | 6% | – | –
N=C(N)NCCC[C@H]1C(=O)N(CCc2c[nH]c3ccccc23)CCN1C(=O)[C@H](N)Cc1ccc(Cl)cc1Cl [Example 2, N-(3-{(S)-1-[(R)-2-Amino-3-(2,4-dichloro-phenyl)-propionyl]-4-[2-(1H-indol-3-yl)-ethyl]-3-oxo-piperazin-2-yl}-propyl)-guanidine] | pAg (“pAg” means partial agonist) | 604 nM | 0.3 | 604 nM | 15 nM | attenuate the binding of both α-MSH and AgRP to MC4-R | 15 nM | 533 nM | 1580 nM | – | 38 nM | 38 nM | 1410 nM | 7% | – | functional status at MC5-R (hMC5-R [6]): partial agonist (intrinsic activity between 0.1 (10%) and 0.7 (70%) is classified as a partial agonist); functional status at MC1-R (MC1-R [7]): partial agonist (intrinsic activity between 0.1 (10%) and 0.7 (70%) is classified as a partial agonist); Inhibition at 1 μM (NDP-α-MSH) MC4-R (hMC4-R [2]; 1 μM compound): 96%
NH2—(CH2)6—C(═O)-Ser(Bzl)-D-Phe(4-Cl)-Arg-Trp-Asp-Phe-NH2 [Example 15] | pAg (“pAg” means partial agonist) | 283 nM | 0.5 | 238 nM | 5 nM | attenuate the binding of both α-MSH and AgRP to MC4-R | 5 nM | 76 nM | 405 nM | 95% | 0.6 nM | 0.6 nM | 242 nM | 38% | – | –
2-naphthylacetyl-1-amino-1-cyclohexane-carbonyl-D-Phe(4-Cl)-Arg-Trp-NH2 [Example 25] | pAg (“pAg” means partial agonist) | – | 0.2 | > 1000 nM | 40 nM | attenuate the binding of both α-MSH and AgRP to MC4-R | 40 nM | 453 nM | 300 nM | 91% | 50 nM | 50 nM | – | – | partial agonist (intrinsic activity between 0.1 (10%) and 0.7 (70%) is classified as a partial agonist) | EC50 (hMC4-R [1]; MC4-R, Table 1 in μM, read-out: EC50): > 1000 nM
NH2—(CH2)6—C(═O)-Ser(Bzl)-D-Phe(4-Cl)-Arg-Trp-NH2 [Example 1] | pAg (“pAg” means partial agonist) | 296 nM | 0.3 | 296 nM | – | attenuate the binding of both α-MSH and AgRP to MC4-R | 1 nM | 27 nM | 208 nM | – | – | 8 nM | 351 nM | 33% | – | –
N=C(N)NCCC[C@H]1C(=O)N2C(CC[C@@H]2COc2ccc3ccccc3c2)N1C(=O)[C@@H](Cc1ccc(Cl)cc1Cl)NC(=O)[C@@H]1Cc2ccccc2CN1 (stereo partly drawn) [Example 23, (S)-1,2,3,4-Tetrahydro-isoquinoline-3-carboxylic acid {(R)-1-(2,4-dichloro-benzyl)-2-[(2S,5R)-2-(3-guanidino-propyl)-5-(naphthalen-2-yloxymethyl)-3-oxo-hexahydro-pyrrolo[1,2-a]imidazol-1-yl]-2-oxo-ethyl}-amide] | Antag (“Antag” means antagonist) | – | – | – | 1 nM | – | 1 nM | 42 nM | 26 nM | 100% | 1.2 nM | 1.2 nM | – | – | antagonist | pA2 (M) (hMC4-R [1]; MC4-R antagonists, Table 1): 8.086; pA2 value at MC4-R (hMC4-R [1]; Schild plot vs NDP-α-MSH): 8.0
